{"source": "patent US20080125432A1", "about": "(Devgen NV, priority 2004, published 2008)"}
{"units": {"melting point": "°C"}}
{"smiles": "COc1ccccc1Nc1nc(C)c(C(=O)NCc2ccccc2-c2ccccc2)s1", "note": "[Compound 143, 2-(2-methoxy-phenylamino)-4-methyl-thiazole-5-carboxylic acid (biphenyl-2-ylmethyl)-amide]", "melting point": "128.4 to 132"}
{"smiles": "COc1ccccc1Nc1ncc(C(=O)NCc2ccccc2)[nH]1", "note": "[Compound 224, 2-(2-methoxy-phenylamino)-3H-imidazole-4-carboxylic acid benzylamide]", "melting point": "212.5 to 213.9"}
{"smiles": "COc1ccc(CNC(=O)c2sc(Nc3ccccc3OC)nc2C)cc1", "note": "[Compound 218, 2-(2-methoxy-phenylamino)-4-methyl-thiazole-5-carboxylic acid 4-methoxybenzylamide]", "melting point": "143.9 to 144.8"}
{"smiles": "COc1ccc(CNC(=O)c2cnc(Nc3ccccc3OC)[nH]2)c(OC)c1", "note": "[Compound 225, 2-(2-methoxy-phenylamino)-3H-imidazole-4-carboxylic acid 2,4-dimethoxy-benzylamide]", "melting point": "134.1 to 136.2"}
{"smiles": "COc1ccccc1Nc1nc(C)c(C(=O)NCc2cccc(Br)c2)s1", "note": "[Compound 147, 2-(2-methoxy-phenylamino)-4-methyl-thiazole-5-carboxylic acid 3-bromo-benzylamide]", "melting point": "161.3 to 164.1"}
{"smiles": "COc1ccccc1Nc1nc(C)c(C(=O)NCc2ccc(F)c(C(F)(F)F)c2)o1", "note": "[Compound 223, 2-(2-methoxy-phenylamino)-4-methyl-oxazole-5-carboxylic acid 4-fluoro-3-trifluoromethyl-benzylamide]", "melting point": "71.6 to 84.3"}
{"smiles": "COc1ccccc1Nc1nc(C)c(C(=O)NCc2ccccc2OC(F)(F)F)s1", "note": "[Compound 157, 2-(2-methoxy-phenylamino)-4-methyl-thiazole-5-carboxylic acid 2-trifluoromethoxy-benzylamide]", "melting point": "76.1 to 80.2"}
{"smiles": "COc1ccccc1Nc1nc(C)c(C(=O)N2CCC(C(=O)c3ccc(F)cc3)CC2)s1", "note": "[Compound 175, [4-(4-fluoro-benzoyl)-piperidin-1-yl]-[2-(2-methoxy-phenylamino)-4-methyl-thiazol-5-yl]-methanone]", "melting point": "92.6 to 99.6"}
{"smiles": "COc1ccccc1N(C)c1nc(C)c(C(=O)N[C@H](CO)c2ccccc2)s1", "note": "[Compound 150, 2-[(2-methoxy-phenyl)-methyl-amino]-4-methyl-thiazole-5-carboxylic acid ((S)-2-hydroxy-1-phenyl-ethyl)-amide]", "melting point": 119.4}
{"smiles": "COc1ccccc1Nc1nc(C)c(C(=O)NCc2ccccc2Br)s1", "note": "[Compound 146, 2-(2-methoxy-phenylamino)-4-methyl-thiazole-5-carboxylic acid 2-bromo-benzylamide]", "melting point": "159.6 to 164"}
{"smiles": "COc1ccccc1Nc1nc(C)c(C(=O)NC(C)c2ccccc2)s1", "note": "(centres unmarked) [Compound 130, 2-(2-methoxy-phenylamino)-4-methyl-thiazole-5-carboxylic acid (1-phenyl-ethyl)-amide]", "melting point": "60.3 to 62.4"}
{"smiles": "COc1ccccc1Nc1nc(C)c(C(=O)NC2CCCc3ccccc32)s1", "note": "(centres unmarked) [Compound 173, 2-(2-methoxy-phenylamino)-4-methyl-thiazole-5-carboxylic acid (1,2,3,4-tetrahydro-naphthalen-1-yl)-amide]", "melting point": 129.4}
{"smiles": "Cc1nc(Oc2ccccc2)sc1C(=O)N[C@H]1CCC[C@@H]1OCc1ccccc1", "note": "[Compound 80, 4-methyl-2-phenoxy-thiazole-5-carboxylicacid ((1S,2S)-2-benzyloxycyclopent-1-yl)amide]", "melting point": "93.4 to 95.8"}
{"smiles": "COc1ccccc1Nc1nc(C)c(C(=O)NC2CCc3ccccc32)s1", "note": "(centres unmarked) [Compound 164, 2-(2-methoxy-phenylamino)-4-methyl-thiazole-5-carboxylic acid indan-1-ylamide]", "melting point": "146.2 to 148"}
{"smiles": "COc1ccccc1Nc1nc(C)c(C(=O)N2CCC(Cc3ccccc3)CC2)s1", "note": "[Compound 174, (4-benzyl-piperidin-1-yl)-[2-(2-methoxy-phenylamino)-4-methyl-thiazol-5-yl]-methanone]", "melting point": "166.8 to 169.2"}
{"smiles": "COc1ccccc1Nc1nc(C)c(C(=O)NCc2ccc(OC(F)(F)F)cc2)s1", "note": "[Compound 159, 2-(2-methoxy-phenylamino)-4-methyl-thiazole-5-carboxylic acid 4-trifluoromethoxy-benzylamide]", "melting point": "135.2 to 138.9"}
{"smiles": "COc1ccccc1Nc1nc(C)c(C(=O)N(Cc2ccccc2)c2ccccc2)s1", "note": "[Compound 216, 2-(2-methoxy-phenylamino)-4-methyl-thiazole-5-carboxylic acid benzyl-phenyl-amide]", "melting point": "167.2 to 170"}
{"smiles": "Cc1nc(NC(=O)c2ccc(C#N)cc2)sc1C(=O)N[C@H]1CCC[C@@H]1OCc1ccccc1", "note": "[Compound 181, 2-(4-cyano-benzoylamino)-4-methyl-thiazole-5-carboxylic acid ((1S,2S)-2-benzyloxycyclopent-1-yl) amide]", "melting point": "177.2 to 181.4"}
{"smiles": "COc1ccccc1Nc1nc(C)c(C(=O)N2CCCC2c2ccccc2)s1", "note": "(centres unmarked) [Compound 176, [2-(2-methoxy-phenylamino)-4-methyl-thiazol-5-yl]-(2-phenyl-pyrrolidin-1-yl)-methanone]", "melting point": "113.5 to 117.6"}
{"smiles": "COc1ccccc1N(C(C)=O)c1nc(C)c(C(=O)N[C@H]2CCC[C@@H]2OCc2ccccc2)s1", "note": "[Compound 129, 2-[acetyl-(2-methoxy-phenyl)-amino]-4-methyl-thiazole-5-carboxylic acid ((1S,2S)-2-benzyloxycyclopent-1-yl) amide]", "melting point": "145.8 to 149"}
{"smiles": "CC[C@@H](NC(=O)c1sc(Nc2ccccc2OC)nc1C)c1ccccc1", "note": "[Compound 131, 2-(2-methoxy-phenylamino)-4-methyl-thiazole-5-carboxylic acid ((R)-1-phenyl-propyl)-amide]", "melting point": "57.7 to 59.6"}
{"smiles": "COc1ccccc1Nc1nc(C)c(C(=O)NCc2ccccc2)o1", "note": "[Compound 221, 2-(2-methoxy-phenylamino)-4-methyl-oxazole-5-carboxylic acid benzylamide]", "melting point": "125.9 to 130.2"}
{"smiles": "COc1ccccc1Nc1nc(C)c(C(=O)NC2CCN(Cc3ccccc3)C2)s1", "note": "(centres unmarked) [Compound 215, 2-(2-methoxy-phenylamino)-4-methyl-thiazole-5-carboxylic acid (1-benzyl-pyrrolidin-3-yl) amide]", "melting point": "112.6 to 121.6"}
{"smiles": "COc1ccccc1Nc1nc(C)c(C(=O)NCc2c(C)cc(Cl)cc2Cl)s1", "note": "[Compound 220, 2-(2-methoxy-phenylamino)-4-methyl-thiazole-5-carboxylic acid 2,4-dichloro-6-methyl-benzylamide]", "melting point": "142 to 147.7"}
{"smiles": "COc1ccccc1Nc1nc(C)c(C(=O)NCc2cccc(C)c2)s1", "note": "[Compound 141, 2-(2-methoxy-phenylamino)-4-methyl-thiazole-5-carboxylic acid 3-methyl-benzylamide]", "melting point": "148.1 to 149.9"}
{"smiles": "CC[C@H](NC(=O)c1sc(Nc2ccccc2OC)nc1C)c1ccccc1", "note": "[Compound 132, 2-(2-methoxy-phenylamino)-4-methyl-thiazole-5-carboxylic acid ((S)-1-phenyl-propyl)-amide]", "melting point": "66.5 to 70.4"}
